Reference: article PMC9864219, “Chemodiversity and Anti-Leukemia Effect of Metabolites from Penicillium setosum CMLD 18” (Metabolites, 2022)

Columns and labels:
[1] = system: L1210 cells; parameters: method as in PMID 6320499; conditions: read-out: IC50 inhibiting L1210 cells; cited from earlier work
[2] = system: K-562; parameters: method as in PMID 28509552; conditions: Alamar Blue, 72 hrs; cited from earlier work
[3] = system: Hela; parameters: method as in PMID 28509552; conditions: Alamar Blue, 72 hrs; cited from earlier work
[4] = system: Jurkat; parameters: method as in PMID 28509552; conditions: Alamar Blue, 72 hrs; cited from earlier work
[5] = system: Jurkat; assay: Resazurin cell viability assay, Jurkat; assay type: cell-based, human; conditions: for cell viability: 100 μM, 48 h, resazurin (Figure 5B)
Description: (§1) Human leukemic cell lines (Kasumi-1, KG-1, MOLT-4, and Jurkat) were obtained from the American Type Culture Collection (ATCC). KG-1 cells were maintained in Iscove’s modified Dulbecco’s medium (IMDM) supplemented with 20% fetal bovine serum (FBS) (Cultilab, Campinas, Brazil), according to criteria adopted by the cell bank (https://www.atcc.org/products/ccl-246#detailed-product-information) accessed on 10 November 2021, whereas the other lineages were maintained in Roswell Park Memorial Institute medium (RPMI 1640) (Sigma Aldrich, St. Louis, MI, USA) supplemented with 10% FBS. All cells were cultured in a medium containing 100 U/mL penicillin (Sigma Aldrich, St. Louis, MI, USA) and 100 μg/mL streptomycin (Sigma Aldrich, St. Louis, MI, USA) and in a humidified incubator containing 5% CO2 at 37 °C. Passage numbers for all leukemic cell lines were between 3 and 6.
(§2) A resazurin assay (Sigma Aldrich, St. Louis, MI, USA) was used to screen and assess the activity of extracts, fractions, and isolated compounds against leukemic cell lines. Briefly, 10^5 cells/mL were seeded in 96-well plates containing supplemented medium. Cells were treated in the presence or absence of compounds for 48 h using a high concentration (100 µg/mL or 100 µM to isolated compounds) or a concentration–response curve (100, 50, 25, 12.5, 6.25, 3.12, 1.56, and 0.78 µM) after 24 h of treatment with isolated compounds was constructed. After treatment, the cell culture medium was removed, and 100 µL of medium with 10% Resazurin solution was added; after 4 h of incubation, the fluorescence was measured (excitation 530 nm, emission 590 nm) in a FlexStation 3 microplate reader (Molecular Devices, San Jose, CA, USA). Each experiment was performed in triplicate.

[6] = system: Kasumi-1; assay: Resazurin cell viability assay, Kasumi-1; assay type: cell-based, human; conditions: for cell viability: Kasumi-1, 100 μM, 48 h, resazurin (Figure 5A)
Description: as §1, §2

[7] = biological target: ACL, an ATP citrate lyase; parameters: method as in PMID 27997879; conditions: read-out: IC50 inhibitory activity against ACL; cited from earlier work
[8] = system: cleaved caspase-3 in Kasumi-1; assay: Intracellular labeling of cleaved caspase-3 by flow cytometry, Kasumi-1; assay type: cell-based, human; conditions: Kasumi-1, 50 μM, 24 h
Method: (§3) Kasumi-1 and Jurkat cells (10^5/mL) were treated for 24 h with EC50, 50, or 50 µM 10, respectively. Then, cells were fixed with BD Cytofix (BD Biosciences, Mississauga, ON, Canadá) for 15 min, washed with BD Perm/Wash buffer, and permeabilized with Perm Buffer III (BD, USA) for 30 min at room temperature. In order to label cleaved caspase-3 protein (Cell Signaling, Danvers, MA, USA), cells were incubated for 1 h with primary antibody (1:800). Anti-rabbit IgG secondary antibodies conjugated with Alexa Fluor 488 (Thermo Fisher Scientific, Waltham, MA, USA) (1:1000) were incubated for at least 40 min, and the fluorescence was measured using an Accuri C6 flow cytometer and FlowJo software to analyze the results; 20,000 events were collected per sample. Protein analyses were performed using GM fluorescence intensity.

[9] = system: Kasumi-1; assay: Annexin V-FITC/7-AAD flow cytometry assay, Kasumi-1; assay type: cell-based, human; conditions: Kasumi-1, 50 μM, 24 h
Method: (§4) An Annexin V-FITC/7-AAD double staining assay was performed to evaluate the proapoptotic effect of 10. Kasumi-1 and Jurkat cells (10^5/mL) were treated for 24 h with EC50, 50, or 50 µM 10, respectively, or Staurosporine (1 µM) (Sigma Aldrich, St. Louis, MI, USA). Then, the cells were resuspended in annexin binding buffer (0.14 M NaCl, 2.5 mM CaCl2, 0.01 M HEPES, pH 7.4) and incubated at room temperature with 1 μL and 2 μL of annexin V-FITC and 7-AAD (Becton Dickinson, Covington, GA, USA), respectively, for 30 min. Data were analyzed using FlowJo V10 (Becton Dickinson—BD, USA) software; 20,000 events were collected per sample.

[10] = system: normal PBMC cells; assay: Resazurin cell viability assay, normal PBMC; assay type: cell-based, human; conditions: concentration-response curve, 24 h
Method: Peripheral blood mononuclear cells (PBMCs) were obtained from three healthy donors. Human monocytes were collected from healthy donors after informed patient consent was obtained. Separation of mononuclear cells was performed by gradient centrifugation methods using Ficoll Histopaque-1077 (1.077 g/cm^3) (Sigma Aldrich, St. Louis, MI, USA) following the manufacturer’s instructions. The use of human samples was approved by the local Ethical Committee of the Universidade Federal de Mato Grosso do Sul (CAAE35853720.2.0000.0021). Cells were maintained in IMDM supplemented with 20% FBS, 100 U/mL penicillin, and 100 μg/mL streptomycin in a humidified atmosphere at 37 °C in 5% CO2.
A resazurin assay (Sigma Aldrich, St. Louis, MI, USA) was used to screen and assess the activity of extracts, fractions, and isolated compounds against leukemic cell lines. Briefly, 10^5 cells/mL were seeded in 96-well plates containing supplemented medium. […] After treatment, the cell culture medium was removed, and 100 µL of medium with 10% Resazurin solution was added; after 4 h of incubation, the fluorescence was measured (excitation 530 nm, emission 590 nm) in a FlexStation 3 microplate reader (Molecular Devices, San Jose, CA, USA). […]

[11] = system: cleaved caspase-3 in Jurkat; assay: Intracellular labeling of cleaved caspase-3 by flow cytometry, Jurkat; assay type: cell-based, human; conditions: 50 μM, 24 h
Method: as §3

[12] = system: HL-60; parameters: method as in doi:10.1016/j.cclet.2017.09.006; conditions: acute myeloid leukemia cell line; read-out: IC50 against the HL-60 lineage; cited from earlier work
[13] = system: Kasumi-1; assay: Cell cycle analysis (PI) and cell count, Kasumi-1; assay type: cell-based, human; conditions: Kasumi-1, 10 μM, 72 h
Method: (§5) The distribution of cell cycle phases was determined by propidium iodide (PI) staining and flow cytometry analysis. Kasumi-1 and Jurkat cells (10^5/mL) were treated with 10 (10 μM or 1 μM, respectively) for 72 h. Then, the cells were fixed and permeabilized as previously described and treated with 4 μg/mL RNase (Sigma Aldrich, St. Louis, MI, USA) for 45 min at 37 °C. For DNA labeling, cells were incubated with 5 μg/mL of PI (Sigma Aldrich, St. Louis, MI, USA). Percentages of cells within cell cycle compartments (G1/G0, S, and G2/M) were performed using an Accuri C6 flow cytometer (BD Biosciences, Mississauga, Canadá). A total of 40,000 events were acquired.

[14] = system: Jurkat; assay: Cell cycle analysis (PI) and cell count, Jurkat; assay type: cell-based, human; conditions: 10 μM, 72 h
Method: as §5, with “Kasumi-1 and Jurkat cells (10^5/mL) were treated with 10 (10 μM or 1 μM, respectively) for 72 h.” left out

[15] = system: Jurkat; assay: Annexin V-FITC/7-AAD flow cytometry assay, Jurkat; assay type: cell-based, human; conditions: 50 μM, 24 h
Method: as §4

[16] = system: CD11b expression in Kasumi-1 cells; assay: Cell differentiation by immunophenotyping (CD11b); assay type: cell-based, human; conditions: Kasumi-1, 10 μM, 72 h
Method: Cells (10^5/mL) were treated with 10 μM Compound 10 for 72 h. Then, the cells were collected and stained with CD11b-Cy7/PE (2 μL) (BD, USA). The measurements of fluorescence intensity were performed using an Accuri C6 flow cytometer (BD Biosciences, Mississauga, Canadá); 40,000 events were collected per sample. Results were expressed as GM fluorescence intensity.

Which IC50 [1] does the source give for Cc1cc(O)c2c(c1)C(=O)c1cc(O)cc(O)c1C2=O [Compound 3, emodin] here?
Its IC50 is 35 µM.

Which results are given for O=C1c2cc(CO)cc(O)c2C(=O)c2c1cc(O)c(Cl)c2O [Compound 7, 2-chloro-1,3,8-trihydroxy-6-(hydroxymethyl)anthracene-9,10-dione]?
activity against K-562 [2]: inactive; activity against Hela [3]: inactive; activity against Jurkat [4]: inactive; cell viability [5]: reduction in cell viability; cell viability [6]: reduction in cell viability

For Cc1cc(O)c2c(c1)C(=O)c1cc(O)c(Cl)c(O)c1C2=O [Compound 8, 7-chloroemodin], which IC50 [7] is on record?
The IC50 was 12.6 µM.

What about the cell viability [5] of the same compound?
The cell viability was “reduction in cell viability”.

What about the cell viability [6] of the same compound?
The cell viability was “reduction in cell viability”.

For CSC12CC3=COC=CC(OC(C)=O)C3N1C(=O)C1(SC)CC3=COC=CC(OC(C)=O)C3N1C2=O (stereo not shown) [Compound 9, bisdethiobis(methylthio)acetylaranotine], which cell viability [5] is on record?
Its cell viability is “reduction in cell viability”.

What about the cell viability [6] of the same compound?
Its cell viability is “reduction in cell viability”.

Which results are given for C=CC(C)(C)c1[nH]c2ccccc2c1CC1NC(=O)C(Cc2c(C(C)(C)C=C)[nH]c3ccccc23)NC1=O (stereo not shown) [Compound 10, fellutanine C]?
cleaved-caspase-3 [8]: increased cleaved-caspase-3; cell death mode (Annexin V-FITC and 7-AAD staining) [9]: predominant apoptosis staining (Anx-FITC+/7 AAD-); cytotoxicity effect on normal PBMC cells [10]: did not show a cytotoxicity effect; cleaved-caspase-3 [11]: increased cleaved-caspase-3; IC50 [12]: 9.34 µM; cell proliferation (cell count) [13]: reduction in cell proliferation; cell viability at the cell cycle concentration [13]: did not observe a reduction in cell viability; cell cycle distribution ([13]; PI staining): cell cycle arrest in G0/G1; cell proliferation (cell count) [14]: reduction in cell proliferation; cell viability at the cell cycle concentration [14]: did not observe a reduction in cell viability; cell cycle distribution ([14]; PI staining): cell cycle arrest in G0/G1; cell viability [5]: reduction in cell viability; EC50 ([5]; Homo sapiens, concentration-response curve, 24 h, resazurin): 50 µM; cell death mode (Annexin V-FITC and 7-AAD staining) [15]: predominant double staining (late apoptosis and necrosis-like); expression of mature myeloid marker CD11b [16]: did not produce an increase in the expression of CD11b; EC50 ([6]; Homo sapiens, Kasumi-1, concentration-response curve, 24 h, resazurin): 50 µM; cell viability [6]: reduction in cell viability
